The text below walks through data of publication PMC7370300, “Deciphering the Binding of Salicylic Acid to Arabidopsis thaliana Chloroplastic GAPDH-A1” (International Journal of Molecular Sciences, 2020).

What all share (type): binding
Assay [1] has as its target T1, GAPA1 (chloroplastic glyceraldehyde 3-phosphate dehydrogenase A1) (Arabidopsis thaliana, UniProt P25856).
T1 sequence (P25856 60-396): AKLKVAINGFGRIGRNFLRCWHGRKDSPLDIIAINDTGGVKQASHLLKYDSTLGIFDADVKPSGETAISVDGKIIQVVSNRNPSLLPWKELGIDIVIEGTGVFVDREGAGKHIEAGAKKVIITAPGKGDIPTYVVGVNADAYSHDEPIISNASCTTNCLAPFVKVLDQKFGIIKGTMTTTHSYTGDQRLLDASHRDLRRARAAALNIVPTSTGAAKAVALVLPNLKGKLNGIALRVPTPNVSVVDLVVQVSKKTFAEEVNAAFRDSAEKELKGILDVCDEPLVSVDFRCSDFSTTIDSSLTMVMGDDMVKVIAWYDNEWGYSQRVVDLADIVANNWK
Nature of the assay: SPR (Biacore […]), 3-AESA immobilised via its amino group on CM5 chip, […] Langmuir fit. For orientation: In SPR one partner is held on a chip, and binding of the other changes the refractive index at the surface.

The target in assay [2] is GAPA1 (chloroplastic glyceraldehyde 3-phosphate dehydrogenase A1) (Arabidopsis thaliana, UniProt P25856, W378L). Nature of the assay: SPR on immobilised 3-AESA.
Chain of GAPA1 (chloroplastic glyceraldehyde 3-phosphate dehydrogenase A1) (Arabidopsis thaliana, UniProt P25856, W378L) (P25856 60-396 W378L): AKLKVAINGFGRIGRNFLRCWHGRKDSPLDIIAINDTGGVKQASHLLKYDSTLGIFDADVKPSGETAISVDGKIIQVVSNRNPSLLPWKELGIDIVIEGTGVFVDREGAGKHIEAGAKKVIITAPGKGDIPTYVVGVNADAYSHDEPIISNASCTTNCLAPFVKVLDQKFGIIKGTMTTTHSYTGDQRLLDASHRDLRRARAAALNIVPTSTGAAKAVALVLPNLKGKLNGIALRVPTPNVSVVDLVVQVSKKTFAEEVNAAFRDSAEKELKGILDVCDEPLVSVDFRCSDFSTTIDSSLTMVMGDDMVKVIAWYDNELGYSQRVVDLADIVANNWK
Assay [3] deals with GAPA1 (chloroplastic glyceraldehyde 3-phosphate dehydrogenase A1) (Arabidopsis thaliana, UniProt P25856, N94G). The experiment in a line: SPR on immobilised 3-AESA, […] protein; response diminished by […] versus WT.
Chain of GAPA1 (chloroplastic glyceraldehyde 3-phosphate dehydrogenase A1) (Arabidopsis thaliana, UniProt P25856, N94G) (P25856 60-396 N94G): as the sequence (P25856 60-396 W378L) above, with N35G, L319W counted along it
Assay [4] has as its target T1, GAPA1 (chloroplastic glyceraldehyde 3-phosphate dehydrogenase A1). The experiment in a line: SPR competition with immobilised 3-AESA (competition seen from […] NADH).
Assay [5] shares this target. Nature of the assay: SPR competition with immobilised 3-AESA; also inhibits GAPDH activity of purified GAPA1 ([…] at […]).

One may read the Kd as a measure of binding affinity in units of concentration. The low end stands for tighter binding, the high end for weaker binding. Consider `NCCc1cccc(C(=O)O)c1O` [3-AESA, 3-aminoethyl salicylic acid], for which, in assay [1], binding was put at a Kd of 16.7 ± 5.7 nM. In assay [2], the “SPR on immobilised 3-AESA” value is listed as “the ability of GAPA1 Trp319Leu to bind 3-AESA was not affected”. For the same molecule, the “SPR on immobilised 3-AESA, 50 nM protein; response diminished by 66% versus WT” value in assay [3] is “No complete loss of ability to bind 3-AESA was observed in these mutated proteins”.
Take `NC(=O)C1=CN([C@@H]2O[C@H](COP(=O)(O)OP(=O)(O)OC[C@H]3O[C@@H](n4cnc5c(N)ncnc54)[C@H](O)[C@@H]3O)[C@@H](O)[C@H]2O)C=CC1` [NADH]: the “SPR competition with immobilised 3-AESA (competition seen from 2 μM NADH)” value in assay [4] is “pre-incubation of GAPA1 on ice with NADH reduced the level of GAPA1 association with immobilised 3-AESA”.
In the case of `O=C(O)c1ccccc1O` [SA, 2-hydroxybenzoic acid], the “SPR competition with immobilised 3-AESA; also inhibits GAPDH activity of purifie” value in assay [5] is “GAPA1 association with immobilised 3-AESA was inhibited by the presence of SA in a running buffer in a concentration-dependent manner”.
